Patent publication US8966812B2, “Trap for bed bugs and the like” (Susan McKnight, Inc., priority 2007, dated 2015)

Columns and labels:
Type in all cases: in vivo, cimex lectularius
bed bugs [1] = assay: Example 1: climb-up pitfall trap with heat source and lures in an infested apartment building, 14 days; details: trap with heat source 44.8 to 47.3 degrees Celsius plus lure, FIG. 5
Source text: The exterior surface 2 was covered with cloth, the cloth being attached by masking tape, to form a climbing surface. Precipice 3 was formed by the outer edge of the dog dish. Interior surface 4 was formed by the underside of the outer rim of the dog dish which faces upward when the dog dish is turned upside down. Receptacle 5 was formed along the inside of the precipice 3 by the interior surface 4 and the retaining surface 6, effectively forming a capture moat area. The retaining surface 6 was formed by the underside of the inner bowl walls of the dog dish. Center stage 7 was formed by the underside of the bowl portions of the dog dish. The trap 1 was positioned on the floor of an apartment building known to be infested by bed bugs. Referring to the chronological chart of FIG. 5, the trap 1 was initially loaded with a heat blanket (heat source 8) alone. The heat blanket generated temperatures of 44.8 to 47.3 degrees Celsius (112.6 to 117.1 degrees Fahrenheit). The trap 1 with heat source 8 was tested for 14 days. The trap 1 was then loaded with an octenol lure in addition to the heat source 8, but excluding lactic acid. The heat blanket again generated heat. The trap 1 was then loaded with an octenol and L-lactic acid lure as described above, in place of the octenol lure. The heat blanket again generated heat.

bed bugs [2] = assay: Example 2: climb-up pitfall trap with heat source and lures incl. experimental lure composition, infested apartment building, 14 days; details: trap with heat source plus lure, tested several times for 14 days, FIG. 6
Source text: A molded polypropylene dog dish was turned upside down to form climb-up pitfall trap 1 as described in Example 1. The exterior surface 2 was covered with Pellon® featherweight fusible interfacing to form a climbing surface. […] The trap 1 was positioned on the floor of an apartment building known to be infested by bed bugs. As indicated in the bar chart of FIG. 6, the trap 1 was loaded with a heat blanket (heat source 8). The heat blanket generated temperatures of 44.8 to 47.3 degrees Celsius (112.6 to 117.1 degrees Fahrenheit). The trap with heat source 8 was tested several times for 14 days with a modest mean trap count. This test served as a control test. The trap was then loaded with an octenol lure without L-lactic acid. The heat blanket again generated heat. […] The trap was then loaded with an octenol and L-lactic acid lure, in place of the octenol lure. The heat blanket again generated heat. […] The trap was then loaded with an experimental lure consisting of a combination of 100 micrograms of L-lactic acid, 33 micrograms of propionic acid, 0.33 micrograms of butyric acid, 0.33 micrograms of valeric acid and 100 micrograms of octenol (lure composition 10), the experimental lure being combined in a fragrance releasing gel. The heat blanket again generated heat. […]

bed bugs [3] = assay: Example 3: carbon dioxide synergism with experimental lure composition, climb-up pitfall trap in infested apartment building, 14 days
Method: A molded polypropylene dog dish was turned upside down to form the climb-up pitfall trap 1 as described in Example 2. The trap 1 was positioned on the floor of an apartment building known to be infested by bed bugs, and was tested without any lure. This served as the control test illustrated as Test 6 in FIG. 7. The trap was loaded with a heat blanket (heat source 8). The heat blanket generated temperatures of 44.8 to 47.3 degrees Celsius (112.6 to 117.1 degrees Fahrenheit). The trap 1 with heat source 8 was tested with results shown as Test 2 in FIG. 7. The trap was then loaded with a flexible tube connected to a 5 lbs. compressed carbon dioxide cylinder (carbon dioxide source 9). The carbon cylinder emitted 500 ml/min of carbon dioxide through a tube to the area over the center stage 7 of the trap. The trap with carbon dioxide source 9 was tested with the results shown as Test 4 in FIG. 7. The trap was then loaded with an experimental lure comprising: 100 micrograms of L-lactic acid, 33 micrograms of propionic acid, 0.33 micrograms of butyric acid, 0.33 micrograms of valeric acid and 100 micrograms of octenol (i.e., “lure composition 10”), the experimental lure being combined in a fragrance releasing gel. The trap with experimental lure (lure composition 10) was tested with the results indicated in Test 5 of FIG. 7. […]

Compound	bed bugs caught compared with control test (trap with heat source alone) (bed bugs [1])	mean trap count compared with other traps (bed bugs [2])	number of bed bugs caught, times the control (trap only) (bed bugs [3]; carbon dioxide 500 ml/min alone, Test 4 of FIG. 7) [times]	number of bed bugs caught, times the control test (trap only) (bed bugs [3]; heat source plus carbon dioxide 500 ml/min, Test 3 of FIG. 7) [times]
C=CC(O)CCCCC (stereo not shown) [octenol lure, 1-octen-3-ol]	caught more bugs	less effective results than heat alone		
O=C=O [carbon dioxide source 9, carbon dioxide]			~3	~4
